Experimental data taken from ChEMBL document CHEMBL1123077, “N-2,3-Butadienyl-1,4-butanediamine derivatives: potent irreversible inactivators of mammalian polyamine oxidase” (J Med Chem, 1985).

Key:
[1] = Half life in pig liver at 50 uM; assay type: ADME, organism-based, Sus scrofa; conditions: pig liver (preparation not specified)
[2] = Half life in pig liver at 12 uM; assay type: ADME, organism-based, Sus scrofa; conditions: pig liver (preparation not specified)

half-life at 50 µM [1] | half-life at 12 µM [2] | Compound
35 min |  | C=CCNCCCCN
 | 12 min | C=CCNCCCCNC
